# Source: patent US20050165068A1, “Compounds, in particularly of urea derivatives or esters of haloacetamidobenzoic acid and use thereof for the treatment of parasitic diseases” (priority 2002, published 2005)
# Where two headings read alike, the source gives them in different places.
# Tests used:
# [1] = system: promastigote phase of Leishmania; settings: 96 hours of contact, MTT marker; values of FIG. 1 not given
# mouse microphages = settings: times less on mouse microphages than on the parasite
# Protocol: (§3) A tetrazolium salt (MTT) has been used as marker. In the case of L. mexicana, the molecules were evaluated relative to the intracellular amastigote stage (macrophages of Balb/c), the stage encountered in patients.
# L. major = assay: in vivo anti-Leishmania activity, cutaneous model (L. major in Balb/c mice); settings: MF 29 10 mg/kg intra-peritoneal once per day for 10 days, Glucantime subcutaneous, same scheme
# Protocol: (§1) In promastigotes of L. major (2×106) or of L. infantum (10^7) in the stationary phase are inoculated respectively by the subcutaneous route in the rear right paw or by intravenous route in the caudal vein. […] Meglumine antimoniate (Glucantime-Speca™ Rhone-Poulenc, Paris, France) containing 85 mg of pentavalent antimony per ml is administered by subcutaneous route according to the same therapeutic scheme. The control group receives the solvent of MF 29 and of the saline solution at 0.9% by intra-peritoneal route.
# (§2) For the cutaneous model, the efficacy of the treatment is evaluated by measuring the edema at the infected paw with the help of an electronic sliding foot (ref. 56371; Polylabo; Strasburg, France), and reported relative to the thickness of the counter-lateral paw. The mice are sacrificed […] after infection. A fragment of derma, of the spleen, of the liver and of the polyptic ganglion draining the lesion are set aside to determine the parasitic load in situ. As to the model of visceral leishmaniosis, the same protocol is carried out on the spleen and the liver. The parasitic load is expressed by the log10 of the number of parasites per gram of tissue.
# L. infantum = assay: in vivo anti-Leishmania activity, visceral model (L. infantum); set-up: species or system mice; settings: L. infantum intravenous, MF 29 10 mg/kg intra-peritoneal once per day for 10 days, Glucantime subcutaneous
# Protocol: as §1, §2
# tubuline of beef brain = system: tubuline of beef brain
# Protocol: The anti-microtubular activity of MF 29 is also compared to that of MF 191 and to that of the vinblastine on the assembly of the tubulines of beef brain.
# Experiments carried out to measure the capacity of in vitro polymerization of the tubuline were carried out with the help of a spectrophotometer provided with a circulating bath system at 37° C. and an automatic well loader permitting simultaneous measurement of several tests. The optical density which increases with polymerization of the assembly of the tubulines of the brain according to Lebanski et al., 1973, that is induced with the promoter MAP2 is measured at 345 nm every thirty seconds.
# [2] = system: Trypanosoma cruzi Peruvian strain
# Protocol: The in vivo anti-Trypanosoma activity of MF 29 has also been studied. Mice were infected with Trypanosoma cruzi Peruvian strain by intravenous route. Four days post-infection, the mice are treated with MF 29 by intra-peritoneal route once per day in the amount of 10 mg/Kg for 10 days. The control group receives the solvent. The effectiveness of the treatment is evaluated by measuring parasitemia and followed by mortality.
# Plasmodium falciparum = system: Plasmodium falciparum
# From the text: MF 29 has been evaluated in a test of inhibition of the proliferation of Plasmodium falciparum (mortal species) in an intra-erythrocytic model by measuring the incorporation of hypoxanthine.
# [3] = system: MRC5 line (normal tissue of fetal lung); settings: times less for MRC5 line than on the parasite
# Protocol: as §3
# [4] = system: promastigotes of L. mexicana; settings: treatment for one hour at 5 μg/ml, sweeping electron microscope
# [5] = system: L. mexicana intracellular amastigote stage; assay: activity on the intracellular amastigote stage of L. mexicana in macrophages of Balb/c; settings: times greater than GLUCANTIME
# Protocol: as §3
compound,measurement,setting,value
"CCOC(=O)c1ccc(NC(=O)CCl)cc1 [GR 37, 4-chloroacetamido ethyl benzoate]","in vitro anti-Leishmania activity (CI50 of Table 1 / FIG. 1, described in words)",[1],extraordinary activity
same,cytotoxicity on mouse macrophages relative to the parasite,mouse microphages,1000 times
CCOC(=O)c1ccccc1NC(=O)CCl [GR 38],"in vitro anti-Leishmania activity (CI50 of Table 1 / FIG. 1, described in words)",[1],similar
"CCOC(=O)c1cccc(NC(=O)CCl)c1 [MF 29, 3-chloroacetamido ethyl benzoate]",reduction of the hepatic parasitic load,L. major,96%
same,reduction of the polyptic ganglion parasitic load,L. major,59%
same,reduction of the spleen parasitic load,L. major,97%
same,reduction of the parasitic load in the liver,L. infantum,25%
same,reduction of the parasitic load in the spleen,L. infantum,56%
same,inhibition of polymerization of tubuline of beef brain,"tubuline of beef brain; 37° C., MAP2 promoter, FIG. 4C",weak inhibitor
same,inhibition of polymerization of tubuline of beef brain at doubled concentration,"tubuline of beef brain; doubled concentration of the drug, FIG. 4D",significant inhibition
same,mortality,"[2]; 10 mg/Kg intra-peritoneal once per day for 10 days, FIG. 5",retardation in the curve of mortality
same,mortality,"[2]; 20 mg/kg, preliminary results",greater reduction of mortality
same,reduction of the parasitic load,"[2]; 8th day, versus control group, 10 mg/Kg intra-peritoneal",70%
same,parasitemia (load),"[2]; 8th day, 10 mg/Kg intra-peritoneal once per day for 10 days from four days post-infection",200 trypomastigotes per 50 fields
same,parasitemia versus control group,"[2]; 10th day, 10 mg/Kg intra-peritoneal",equivalent for the two groups
same,CI50,Plasmodium falciparum; chloroquinine-sensitive strain (FCB1-Columbia),0.1 µg/mL
same,CI50,Plasmodium falciparum; strain (Nigerian strain) resistant to chloroquinine,0.1 µg/mL
same,"in vitro anti-Leishmania activity (CI50 of Table 1 / FIG. 1, described in words)",[1],high activity
same,cytotoxicity for the MRC5 line relative to that obtained on the parasite,[3],400 times
same,effect on the flagella,[4],do not seem to be disturbed
same,morphological changes of the cellular body,[4],multiple pores
same,activity in the amastigote form relative to GLUCANTIME,[5],300 times
"meglumine antimoniate [Glucantime, reference compound]",reduction of the polyptic ganglion parasitic load,L. major,44%
same,reduction of the parasitic load in the liver,L. infantum,30%
same,reduction of the parasitic load in the spleen,L. infantum,66%
